Results published in patent US7625875B2 (priority 2002, dated 2009).
Several values for one entry are separate records, joined by “and”; a condition that tells them apart may be missing. Equal entries are not always repeated. Where two headings read alike, the source gives them in different places.

Legend:
HepG2 cells [1] = assay: Incorporation of drug into cellular RNA and DNA; settings: 10 μM [3H] drug, 30 hours
[2] = test system: Vero 76, African green monkey kidney cells
WNV = assay: microbe, parasite or virus in culture; format: cell-based, West Nile virus; settings: read-out: WNV
CVB-2 = assay: organism not typed; format: cell-based, Coxsackie B-2 virus
BVDV = format: cell-based, bovine viral diarrhea virus
CVA-9 = format: cell-based, Coxsackievirus A-9
CVB-4 = format: cell-based, Coxsackievirus B-4
[3] = test system: MT-4 human T-lymphocyte cells
REO-1 = assay: microbe, parasite or virus in culture; format: cell-based, double-stranded RNA Reovirus
Sb-1 = assay: organism not typed; format: cell-based, Sabin type 1 poliomyelitis virus
DENV 2 = assay: microbe, parasite or virus in culture; format: cell-based, dengue virus; settings: read-out: DENV 2
CVB-3 = format: cell-based, Coxsackievirus B-3
YFV = format: cell-based, yellow fever virus; settings: Tables 30b, 30k-30o
human DNA polymerase γ = biological target: T1, human DNA polymerase γ (Homo sapiens, UniProt P54098); assay: biochemical
T1 sequence (P54098 1-1239): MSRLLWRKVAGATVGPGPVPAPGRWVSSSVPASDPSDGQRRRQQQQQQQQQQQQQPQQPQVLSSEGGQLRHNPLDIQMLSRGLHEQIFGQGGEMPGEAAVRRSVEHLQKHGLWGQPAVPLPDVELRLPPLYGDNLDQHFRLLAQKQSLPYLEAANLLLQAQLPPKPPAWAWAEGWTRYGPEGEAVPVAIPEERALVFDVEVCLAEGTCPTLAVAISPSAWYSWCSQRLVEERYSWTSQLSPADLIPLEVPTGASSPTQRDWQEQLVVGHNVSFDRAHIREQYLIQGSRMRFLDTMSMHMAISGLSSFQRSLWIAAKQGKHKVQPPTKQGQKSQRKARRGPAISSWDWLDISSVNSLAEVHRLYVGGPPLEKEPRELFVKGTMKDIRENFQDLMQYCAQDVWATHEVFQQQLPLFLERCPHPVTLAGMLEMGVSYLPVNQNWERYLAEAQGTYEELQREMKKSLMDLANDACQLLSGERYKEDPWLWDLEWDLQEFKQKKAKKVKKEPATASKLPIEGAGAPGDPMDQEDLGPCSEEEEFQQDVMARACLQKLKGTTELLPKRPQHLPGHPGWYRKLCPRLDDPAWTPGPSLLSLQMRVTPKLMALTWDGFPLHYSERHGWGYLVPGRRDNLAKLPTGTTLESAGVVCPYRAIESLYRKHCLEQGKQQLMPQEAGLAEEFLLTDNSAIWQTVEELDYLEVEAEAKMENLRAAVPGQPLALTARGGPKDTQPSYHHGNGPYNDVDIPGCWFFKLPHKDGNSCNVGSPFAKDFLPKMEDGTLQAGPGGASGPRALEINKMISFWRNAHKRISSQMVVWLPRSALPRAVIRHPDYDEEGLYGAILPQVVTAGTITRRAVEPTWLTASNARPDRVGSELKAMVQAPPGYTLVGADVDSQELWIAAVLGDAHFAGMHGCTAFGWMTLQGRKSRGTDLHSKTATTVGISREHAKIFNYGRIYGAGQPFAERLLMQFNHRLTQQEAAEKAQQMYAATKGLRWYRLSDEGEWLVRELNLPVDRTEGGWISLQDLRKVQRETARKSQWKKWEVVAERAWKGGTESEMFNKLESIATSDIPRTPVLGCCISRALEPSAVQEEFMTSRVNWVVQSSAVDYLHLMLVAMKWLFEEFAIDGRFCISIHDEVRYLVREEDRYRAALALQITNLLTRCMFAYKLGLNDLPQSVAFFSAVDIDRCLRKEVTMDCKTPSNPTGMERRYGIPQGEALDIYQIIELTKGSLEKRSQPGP

human DNA polymerase β = human DNA polymerase β (Homo sapiens, UniProt P06746); assay: Inhibition of human DNA polymerase β; format: biochemical
HepG2 cells [4] = assay: Transmission electron microscopy of mitochondrial ultrastructure; settings: 10 μM, 14 days
HepG2 cells [5] = assay: Mitochondrial DNA content; format: cell-based, human; settings: for mtDNA/nuclear DNA (% of Control): 1 μM
Procedure: To assess the potential of mCyd to produce mitochondrial toxicity, several in vitro studies were conducted using the human hepatoma cell lines HepG2 or Huh7.
The significance of this finding is unclear, particularly since mCyd is unlikely to attain a plasma concentration of 50 μM in the clinic. For comparison, lactic acid production increases by 100% over control cells in cells treated with 10 μM FIAU (Cui L, Yoon, et al. J. Clin. Invest. 1995; 95:555-563).

## Cc1cn([C@H]2C[C@H](N=[N+]=[N-])[C@@H](CO)O2)c(=O)[nH]c1=O [ZDV, zidovudine]
HepG2 cells [1]
  Incorporated drug amount, DNA: 0.103 pmole/μg DNA and 0.103 ± 0.0123^a pmole/μg DNA
  Incorporated drug amount, RNA: 0.0009 pmole/μg RNA and 0.0009 ± 0.0003^a pmole/μg RNA

## C#C[C@@]1(O)[C@H](O)[C@@H](CO)O[C@H]1n1cnc2c(N)ncnc21 [Compound H, β-D-2′-C-ethynyl-adenosine]
[2]
  CC50: 60 µM
WNV
  EC50: 1 µM
BHK
  CC50: 15 µM
CVB-2; read-out: CVB-2
  EC50: 1.2 µM
CVB-2; read-out: EC50 CVB-2
  EC50: 1.5 µM
BVDV
  EC50: 0.4 µM
CVA-9
  EC50: 2.5 µM
CVB-4
  EC50: 2 µM
[3]
  CC50: 4.6 µM
REO-1; read-out: EC50 REO-1
  EC50: 6 µM
REO-1; read-out: REO
  EC50: 6 µM
Sb-1; read-out: Sb-1
  EC50: 0.7 µM
DENV 2
  EC50: 1.1 µM
CVB-3
  EC50: 1 µM
YFV
  EC50: 2 µM

## CC(C)[C@H](N)C(=O)OC[C@H]1O[C@@H](n2cnc3c(=O)[nH]c(N)nc32)[C@](C)(O)[C@@H]1OC(=O)[C@@H](N)C(C)C [Compound E, 3′,5′-di-O-valinyl ester of β-D-2′-C-methyl-guanosine]
[2]
  CC50: > 100 µM
WNV
  EC50: 1 µM
BHK
  CC50: 100 µM
CVB-2; read-out: CVB-2
  EC50: 33 µM
CVB-2; read-out: EC50 CVB-2
  EC50: 33 µM
BVDV
  EC50: 4.9 µM
CVA-9
  EC50: 40 µM
CVB-4
  EC50: 35 µM
[3]
  CC50: > 100 µM
REO-1; read-out: EC50 REO-1
  EC50: 2 µM
REO-1; read-out: REO
  EC50: 2.1 µM
Sb-1; read-out: Sb-1
  EC50: 55 µM
DENV 2
  EC50: 1.4 µM
CVB-3
  EC50: 30 µM
YFV
  EC50: 1 µM

## C[C@@]1(O)[C@H](O)[C@@H](COP(=O)(O)OP(=O)(O)OP(=O)(O)O)O[C@H]1n1ccc(N)nc1=O [mCyd-TP, 2′-C-methyl-cytidine-5′-triphosphate]
Human DNA polymerase γ
  IC50: ≥ 929 µM
Human DNA polymerase β
  IC50: ≥ 883 µM

## C[C@@]1(O)[C@H](O)[C@@H](CO)O[C@H]1n1cnc2c(=O)[nH]c(N)nc21 [Compound C, β-D-2′-C-methyl-guanosine]
[2]
  CC50: > 100 µM
WNV
  EC50: 0.6 µM
BHK
  CC50: 100 µM
CVB-2; read-out: CVB-2
  EC50: 29 µM
CVB-2; read-out: EC50 CVB-2
  EC50: 30 µM
BVDV
  EC50: 3.5 µM
CVA-9
  EC50: 46 µM
CVB-4
  EC50: 12 µM
[3]
  CC50: > 100 µM
REO-1; read-out: EC50 REO-1
  EC50: 2 µM
REO-1; read-out: REO
  EC50: 2 µM
Sb-1; read-out: Sb-1
  EC50: 50 µM
DENV 2
  EC50: 1.4 µM
CVB-3
  EC50: 22 µM
YFV
  EC50: 1.2 µM

## Cc1cn([C@@H]2O[C@](C)(CO)[C@@H](O)[C@H]2O)c(=O)[nH]c1=O
other
  melting point: 258 to 260 °C (dec.)

## C#C[C@@]1(O)[C@H](O)[C@@H](CO)O[C@H]1n1ccc(N)nc1=O [Compound I, β-D-2′-C-ethynyl-cytidine]
[2]
  CC50: > 100 µM
BHK
  CC50: > 100 µM
CVB-2; read-out: EC50 CVB-2
  EC50: 33 µM
CVA-9
  EC50: 59 µM
CVB-4
  EC50: 24 µM
[3]
  CC50: ≥ 100 µM
REO-1; read-out: EC50 REO-1
  EC50: > 100 µM
Sb-1; read-out: EC50 Sb-1
  EC50: 26 µM
CVB-3
  EC50: 33 µM

## C[C@@]1(O)[C@H](O)[C@@H](CO)O[C@H]1n1cnc2c(N)nc(N)nc21 [Compound B, β-D-2′-C-methyl-2-amino adenosine]
[2]
  CC50: > 100 µM
WNV
  EC50: 0.3 µM
BHK
  CC50: 50 µM
CVB-2; read-out: CVB-2
  EC50: 76 µM
CVB-2; read-out: EC50 CVB-2
  EC50: 75 µM
BVDV
  EC50: 2.1 µM
CVA-9
  EC50: 39 µM
CVB-4
  EC50: 32 µM
[3]
  CC50: > 100 µM
REO-1; read-out: EC50 REO-1
  EC50: 2 µM
REO-1; read-out: REO
  EC50: 2 µM
Sb-1; read-out: EC50 Sb-1
  EC50: 90 µM
Sb-1; read-out: Sb-1
  EC50: 90 µM
DENV 2
  EC50: 0.7 µM
CVB-3
  EC50: 23 µM
YFV
  EC50: 0.8 µM

## CC(C(=O)c1ccccc1)n1c(N)nc2c(ncn2[C@@H]2O[C@H](CO)[C@@H](O)[C@@]2(C)O)c1=O (stereo partly drawn) [Compound L, β-D-2′-C-methyl-1-(methyl-2-oxo-2-phenylethyl)guanosine]
WNV
  EC50: 3 µM
CVB-2; read-out: CVB-2
  EC50: > 100 µM
BVDV
  EC50: 12 µM
[3]
  CC50: > 100 µM
REO-1; read-out: REO
  EC50: 12 µM
Sb-1; read-out: Sb-1
  EC50: > 100 µM
DENV 2
  EC50: 4.4 µM
YFV
  EC50: 6 µM

## Nc1nc(N)c2ncn([C@@H]3O[C@H](CO)[C@@H](O)[C@H]3O)c2n1 [Compound J, β-D-2-amino-adenosine]
[2]
  CC50: > 100 µM
BHK
  CC50: > 100 µM
CVB-2; read-out: EC50 CVB-2
  EC50: 53 µM
CVA-9
  EC50: 53 µM
CVB-4
  EC50: 50 µM
[3]
  CC50: 50 µM
REO-1; read-out: EC50 REO-1
  EC50: > 100 µM
Sb-1; read-out: EC50 Sb-1
  EC50: 40 µM
CVB-3
  EC50: 55 µM

## C[C@@]1(O)[C@H](O)[C@@H](CO)O[C@H]1n1cnc2c(Cl)nc(N)nc21 [Compound D, β-D-2′-C-methyl-6-chloro-guanosine]
[2]
  CC50: > 100 µM
WNV
  EC50: 0.3 µM
BHK
  CC50: 30 µM
CVB-2; read-out: CVB-2
  EC50: 25 µM
CVB-2; read-out: EC50 CVB-2
  EC50: 25 µM
BVDV
  EC50: 0.7 µM
CVA-9
  EC50: 37 µM
CVB-4
  EC50: 25 µM
[3]
  CC50: > 100 µM
REO-1; read-out: EC50 REO-1
  EC50: 0.4 µM
REO-1; read-out: REO
  EC50: 0.4 µM
Sb-1; read-out: EC50 Sb-1
  EC50: 50 µM
Sb-1; read-out: Sb-1
  EC50: 50 µM
DENV 2
  EC50: 0.7 µM
CVB-3
  EC50: 21 µM
YFV
  EC50: 1 µM

## C[C@@]1(O)[C@H](O)[C@@H](CO)O[C@H]1n1cnc2c(NC3CC3)nc(N)nc21 [Compound K, β-D-2′-C-methyl-2-amino-6-cyclopropyl adenosine]
WNV
  EC50: 3.5 µM
CVB-2; read-out: CVB-2
  EC50: > 100 µM
BVDV
  EC50: 18 µM
[3]
  CC50: > 100 µM
REO-1; read-out: REO
  EC50: 9.5 µM
Sb-1; read-out: Sb-1
  EC50: > 100 µM
DENV 2
  EC50: 4.9 µM
YFV
  EC50: 10 µM

## Nc1ccn([C@H]2CC[C@@H](CO)O2)c(=O)n1 [ddC, zalcitabine, reference compound]
HepG2 cells [4]
  Electron Microscopy, Lipid Droplet Form.: Positive
  Electron Microscopy, Mito. Morphol.: Loss of Cristae
HepG2 cells [1]
  Incorporated drug amount, DNA: 0.0055 pmole/μg DNA and 0.0055^b pmole/μg DNA
  Incorporated drug amount, RNA: 0.0013 pmole/μg RNA and 0.0013^b pmole/μg RNA
HepG2 cells [5]; 6 day treatment
  mtDNA/nuclear DNA (% of Control): 44.3 ± 9.3 % of Control
HepG2 cells [5]; 14 day treatment
  mtDNA/nuclear DNA (% of Control): 19.6 ± 8.2 % of Control
HepG2 cells [5]; 6 days
  reduction of mitochondrial DNA content: 56%
HepG2 cells [5]; 14 days
  reduction of mitochondrial DNA content: 80%

## C[C@]1(CO)O[C@@H](n2cnc3c(N)ncnc32)[C@H](O)[C@@H]1O
other
  melting point: 96 to 97 °C (dec.)

## C[C@@]1(O)[C@H](O)[C@@H](CO)O[C@H]1n1cnc2c(N)ncnc21 [Compound A, β-D-2′-C-methyl-adenosine]
[2]
  CC50: 80 µM
WNV
  EC50: 3.6 µM
BHK
  CC50: 70 µM
CVB-2; read-out: CVB-2
  EC50: 7 µM
CVB-2; read-out: EC50 CVB-2
  EC50: 10 µM
BVDV
  EC50: 1.2 µM
CVA-9
  EC50: 12 µM
CVB-4
  EC50: 13 µM
[3]
  CC50: 4 µM
REO-1; read-out: EC50 REO-1
  EC50: > 70 µM
REO-1; read-out: REO
  EC50: > 70 µM
DENV 2
  EC50: 2.7 µM
CVB-3
  EC50: 14 µM
YFV
  EC50: 2.7 µM

## C[C@]1(CO)O[C@@H](n2ccc(=S)[nH]c2=O)[C@H](O)[C@@H]1O
other
  melting point: 65 to 70 °C (dec.)
